Assay: mn = molality of the nth substance listed, in mol/kg
Conditions: 101 kPa, Liquid, Alternating current cell with electrodes

[Br-].[K+] [potassium bromide] + O
electrical conductivity [S/m]
Conditions | 278.15 K | 283.15 K | 298.15 K | 308.15 K | 318.15 K | 343.15 K | 363.15 K
m1 = 9.9e-05 | 0.0009344 | 0.001066 | 0.001469 | 0.00175 | 0.002072 | 0.002896 | 0.003522
m1 = 0.000975 | 0.009114 | 0.01037 | 0.01441 | 0.01716 | 0.02007 | 0.02802 | 0.0343
m1 = 0.00987 | 0.08994 | 0.1022 | 0.1417 | 0.1689 | 0.1974 | 0.2761 | 0.3376
m1 = 0.09755 | 0.8252 | 0.9355 | 1.29 | 1.535 | 1.787 | 2.491 | 2.952
m1 = 1.21 | 8.409 | 9.363 | 12.45 | 14.54 | 16.72 | 22.46 | 26.28

O=C([O-])[O-].[K+].[K+] [potassium carbonate] + O
electrical conductivity [S/m]
Conditions | 278.15 K | 283.15 K | 298.15 K | 308.15 K | 318.15 K | 343.15 K | 363.15 K
m1 = 0.00132 | 0.02129 | 0.02471 | 0.03642 | 0.0439 | 0.05331 | 0.07921 | 0.09755
m1 = 0.01048 | 0.1568 | 0.1809 | 0.2575 | 0.3146 | 0.3758 | 0.5522 | 0.6987
m1 = 0.1319 | 1.589 | 1.815 | 2.542 | 3.054 | 3.59 | 5.098 | 6.345
m1 = 0.3525 | 3.8 | 4.305 | 5.942 | 7.115 | 8.319 | 11.6 | 14.31

[Ca+2].[Cl-].[Cl-] [calcium chloride] + O
electrical conductivity [S/m]
Conditions | 278.15 K | 283.15 K | 298.15 K | 308.15 K | 318.15 K | 343.15 K | 363.15 K
m1 = 7.6e-05 | 0.001256 | 0.001432 | 0.001998 | 0.002384 | 0.002814 | 0.004073 | 0.00517
m1 = 0.000755 | 0.01195 | 0.01369 | 0.01945 | 0.02351 | 0.02784 | 0.03992 | 0.05001
m1 = 0.00755 | 0.1103 | 0.1263 | 0.1792 | 0.216 | 0.2547 | 0.3636 | 0.4547
m1 = 0.0755 | 0.9331 | 1.062 | 1.496 | 1.793 | 2.11 | 2.982 | 3.694
m1 = 0.3773 | 4.179 | 4.73 | 6.531 | 7.792 | 9.092 | 12.66 | 15.58

O=[N+]([O-])[O-].O=[N+]([O-])[O-].[Zn+2] [nitric acid, zinc salt] + O
electrical conductivity [S/m]
Conditions | 278.15 K | 283.15 K | 298.15 K | 308.15 K | 318.15 K | 343.15 K | 363.15 K
m1 = 8.7e-05 | 0.001368 | 0.001579 | 0.002248 | 0.002744 | 0.003188 | 0.004549 | 0.00575
m1 = 0.00127 | 0.01814 | 0.02081 | 0.02942 | 0.03606 | 0.04205 | 0.06014 | 0.07615
m1 = 0.00874 | 0.1162 | 0.1334 | 0.1891 | 0.2299 | 0.2687 | 0.383 | 0.4824
m1 = 0.1275 | 1.391 | 1.592 | 2.217 | 2.658 | 3.118 | 4.402 | 5.442
m1 = 0.3325 | 3.111 | 3.653 | 4.931 | 5.906 | 6.986 | 9.937 | 11.83

[Cl-].[Cl-].[Mg+2] [magnesium chloride] + O
electrical conductivity [S/m]
Conditions | 278.15 K | 283.15 K | 298.15 K | 308.15 K | 318.15 K | 343.15 K | 363.15 K
m1 = 0.000119 | 0.001861 | 0.002134 | 0.002989 | 0.003553 | 0.004209 | 0.006086 | 0.00764
m1 = 0.000984 | 0.01481 | 0.017 | 0.02432 | 0.02937 | 0.03478 | 0.0501 | 0.06265
m1 = 0.01137 | 0.1537 | 0.176 | 0.2503 | 0.302 | 0.3534 | 0.5068 | 0.6347
m1 = 0.09942 | 1.1 | 1.256 | 1.772 | 2.137 | 2.515 | 3.575 | 4.424
m1 = 0.3609 | 3.449 | 3.927 | 5.491 | 6.606 | 7.753 | 10.94 | 13.6

[F-].[K+] [potassium fluoride] + O
electrical conductivity [S/m]
Conditions | 278.15 K | 283.15 K | 298.15 K | 308.15 K | 318.15 K | 343.15 K | 363.15 K
m1 = 0.000325 | 0.002576 | 0.002933 | 0.004125 | 0.005036 | 0.005965 | 0.008448 | 0.01046
m1 = 0.00109 | 0.008262 | 0.009509 | 0.01357 | 0.01642 | 0.01929 | 0.02734 | 0.03426
m1 = 0.035 | 0.2417 | 0.2829 | 0.3939 | 0.4778 | 0.5576 | 0.7954 | 0.9964
m1 = 0.11 | 0.7375 | 0.8455 | 1.195 | 1.445 | 1.692 | 2.409 | 3.004
m1 = 0.52 | 3.023 | 3.435 | 4.804 | 5.771 | 6.801 | 9.683 | 11.86
m1 = 0.99 | 5.272 | 6.034 | 8.275 | 9.907 | 11.75 | 16.85 | 20.13

O=S(=O)([O-])[O-].O=S(=O)([O-])[O-].O=S(=O)([O-])[O-].[Fe+3].[Fe+3] [ferric sulfate] + O
electrical conductivity [S/m]
Conditions | 343.15 K | 363.15 K
m1 = 0.000104 | 0.659 | 0.6888
m1 = 0.000829 | 0.681 | 0.718

O=S(=O)([O-])[O-].[Fe+2] [iron(II) sulfate] + O
electrical conductivity [S/m]
Conditions | 278.1 K | 283.1 K | 298.15 K | 308.15 K | 318.15 K | 343.15 K | 363.15 K
m1 = 0.00112 | 0.06212 | 0.06791 | 0.08697 | 0.09771 | 0.1075 | 0.1235 | 0.1274
m1 = 0.00212 | 0.06435 | 0.07287 | 0.09366 | 0.1063 | 0.1165 | 0.1409 | 0.1543
m1 = 0.01287 | 0.1183 | 0.1326 | 0.1784 | 0.2092 | 0.2419 | 0.3214 | 0.3988
m1 = 0.1121 | 0.2469 | 0.269 | 0.3516 | 0.3913 | 0.4714 | – | –
m1 = 0.2576 | 1.238 | 1.415 | 1.98 | 2.303 | 2.692 | 3.631 | 4.11

[Cl-].[Cl-].[Sr+2] [strontium chloride] + O
electrical conductivity [S/m]
Conditions | 278.15 K | 283.15 K | 298.15 K | 308.15 K | 318.15 K | 343.15 K | 363.15 K
m1 = 0.000125 | 0.002084 | 0.002384 | 0.003331 | 0.003972 | 0.004689 | 0.00678 | 0.00842
m1 = 0.00141 | 0.02222 | 0.02538 | 0.03603 | 0.04353 | 0.05151 | 0.07369 | 0.09235
m1 = 0.012 | 0.1807 | 0.2072 | 0.2926 | 0.3531 | 0.4164 | 0.5927 | 0.7383
m1 = 0.1313 | 1.663 | 1.892 | 2.646 | 3.174 | 3.719 | 5.229 | 6.184
m1 = 0.3891 | 4.194 | 4.751 | 6.457 | 7.797 | 9.074 | 12.51 | 15.38
